What was measured:
[1] = test system: articular chondrocytes; experiment: miR-122 / miR-451 transfection of articular chondrocytes in presence and absence of IL-1β; assay type: cell-based, rat; details: miR transfection plus IL-1β stimulation
Excerpt: The following Examples with these microRNAs established their functions in articular chondrocytes in the presence and absence of the inflammatory cytokine IL-1β. Since IL-1β signaling is a major contributor of OA, a well-established model of creating an osteoarthritic phenotype in vitro is to stimulate cell cultures with this cytokine. This study first established that both these microRNAs were elevated in OA in the bilateral ACLT model.
The miR-451 miR (SEQ ID NO:10) was originally chosen as a control miR but it had surprising and very specific functions. […] A series of transfections and inhibition experiments with these microRNAs confirmed that these changes were due to the microRNAs themselves.

[2] = test system: chondrocytes; details: in vitro studies (Scott; Tang et al.); cited from earlier work
[3] = test system: resting zone and growth zone chondrocytes; experiment: microRNA transfection of costochondral resting zone and growth zone chondrocytes; details: preliminary testing
[4] = test system: rat articular chondrocytes (rArCs); experiment: miR mimic or inhibitor transfection of rArCs with or without TNF-α stimulation; assay type: cell-based
Procedure: FIGS. 7A-7F show assessment of miR-122 and miR-451 transfection or inhibition on TNF-α stimulated rat articular chondrocytes. rArCs were transfected at 60% confluence with miR-122, miR-451, miR-122-inhibitor (122-Inh), miR-451 inhibitor (451-Inh), or an empty vehicle (Lipo) for 24 hours followed by 24 hours with or without 10 ng/mL TNF-α stimulation. (FIG. 7A, 7D) Total DNA was measured from the cell monolayer and (FIG. 7B, 7E) MMP-13 and (FIG. 7C, 7F) PGE2 proteins were measured from the conditioned media. Groups not sharing a letter (A, B or C over bar) are statistically significant using an alpha=0.05.
Rat articular chondrocytes (rArCs) were isolated using a previously established protocol (see Scott, supra). Briefly, rArCs were isolated from femoral condyles and tibial plateaus from 100-125 g male Sprague Dawley rats. Cartilage was sterilely sliced from the articular surfaces using a surgical blade and placed in Dulbecco's modification of Eagle's medium with 1 g/L glucose, 50 U/mL penicillin and streptomycin (pen-strep) (DMEM). After removing DMEM, cartilage was incubated with 0.05% trypsin (20 mins, 37° C.), rinsed with DMEM (50 U/mL pen-strep, 20 mins, 37° C.), and then digested with sterile-filtered 0.03% collagenase type II solution (Worthington Biochemical, Lakewood, NJ) in Hank's balanced salt solution (16 hrs, 37° C.). Digestion was quenched with an equal volume of DMEM containing 10% fetal bovine serum (FBS) and 50 U/mL pen-strep, strained through a 40 μm strainer (Greiner Bio-one, North Carolina), spun down at 500×g for 10 mins and plated at a seeding density of 15,000 cells/cm^2. These cells are at passage 0. All experiments used cells at passage 1.
rArCs were plated at a seeding density of 15,000 cells/cm^2 and fed with DMEM supplemented with 10% FBS and 50 U/mL pen-strep. Media were changed 24 hours after plating and then every 48 hours. After treatments described below, conditioned media were collected, centrifuged at 1,000×g for 10 mins to remove cellular debris, aliquoted, and stored at −80° C. until assayed. Cell monolayers were rinsed twice with 1 mL of 1×PBS, lysed in 500 μL of 0.05% Triton X-100, and frozen for later DNA analysis. MMP-13 (ANASpec, Fremont, CA) and PGE2 (R&D Systems) were measured in the conditioned media by a microplate reader at ex/em 490 nm/520 nm, and 450 nm absorbance, respectively, in accordance with the manufacturer's directions. Data were normalized to the DNA content of the cell monolayer. Cell layers were thawed, and mechanically lysed by ultrasonication (40V, 10s/well) (VCX-120; Vibra-cell, Newtown, CT) and DNA was measured using QuantiFluor dsDNE system kit (Promega, Madson, WI) and quantified on a fluorescence plate reader at ex/em 504 nm/531 nm. […]

With “miR-451: mirVana miRNA mimic rno-miR-451-5p; AAACCGUUACCAUUACUGAGUU (AAACCGUUACCAUUACUGAGUU; listed as RNA, chemistry not given here)” the “IL-1β-stimulated MMP-13” value [1] was “exacerbated production in MMP-13 and PGE2”, the “IL-1β-stimulated PGE2” value [1] was “exacerbated production in MMP-13 and PGE2” and the “growth factor VEGF” value [1] was “decreased the growth factor VEGF”. The “inflammatory mediators, cytokines, chemokines (IL-1α, IL-2, IL-4, IL-6, GM-CSF, MIP-1A; RANTES for miR-122)” value [1] was “increased the inflammatory mediators, cytokines, chemokines”, the “apoptosis and cell viability in chondrocytes” value [2] was “does not induce apoptosis or compromise cell viability” and the proliferation ([3]; transfected costochondral resting zone and growth zone chondrocytes) was “decrease in total DNA and proliferation”. The “total DNA” value ([3]; transfected growth plate chondrocytes) was “decrease in total DNA and proliferation”, the “change of total DNA on TNF-α treatment in transfected cells” value ([4]; 14.5 nM mimic 24 hours, then 10 ng/mL TNF-α 24 hours) was “did not change total DNA” and the “total DNA after mimic transfection” value ([4]; 14.5 nM mimic, 24 hours, vs Lipo control) was “reduced total DNA compared to all groups”.
